According to article PMC11547840, “The Intestinal Barrier Protective Effect of Indole Aldehyde Derivatives on Acute Toxoplasma gondii Infection” (Molecules, 2024):
“Also recorded” adds a separate entry of the source. Where two headings read alike, the source gives them in different places.

Tests used:
[1] = system: IEC-6 cells; assay: MTT cytotoxicity assay in IEC-6 cells; assay type: cell-based; details: Rattus norvegicus, read-out: IC50 in IEC-6 Cells
Experimental: (§1) Anti-T. gondii activity and cytotoxicity of indole derivatives in vitro were evaluated by MTT assay (Solarbio, Beijing, China) using a slightly modified version of the procedure of Shang et al.. IEC-6 cells were seeded onto the 96-well plates (2 × 10^3/well) for 24 h to obtain the full monolayer, and then the host cells were infected with T. gondii (parasite: cell = 3:1) in complete medium. After 24 h, cells were washed to remove any extra parasites and then incubated with different concentrations (20, 200, 500 and 1000 μm) of […]. […] After 24 h of treatment, MTT solution was added directly to the culture wells and then incubated for 4 h at 37 °C. The optical absorbance was measured at a wavelength of 548 nm using a microplate reader (SpectraMax M2, Molecular Devices, Sunnyvale, CA, USA). Giemsa staining was used to observe the changes in cell morphology and the proliferation of T. gondii-infected cells. IEC-6 (1 × 10^5 cells/well) was inoculated into 24-well plates containing round coverslip, and after the cells were attached to the wall, T. gondii (3 × 10^5 cells/well) was added to infect the cells for 3 h. After the culture medium was discarded, PBS was added to remove the uninvaded tachyzoites. […] After discarding the supernatant, the cells were washed with PBS and completely aspirated, and then fixed by adding 0.5 mL of methanol for 3 min. Giemsa staining solution was added and shaken slightly to make the staining uniform. Coverslips were rinsed with distilled water to replace the staining solution, and finally, the slices were sealed with neutral gum and air-dried.

[2] = Small intestine histology and pathology scoring of T. gondii-infected mice; assay type: in vivo; details: 100 mg/kg oral once a day for 6 days
Excerpt: (§2) For the in vivo study, KM female mice were divided into groups consisting of six animals each and then intraperitoneally injected with 2 × 10^3 tachyzoites. […] On the last day, heart blood samples were collected after anesthesia to separate the serum, and after mice were sacrificed by cervical dislocation, mice were dissected to obtain organs and tissues. The tachyzoites were harvested from mice peritoneal cavities to determine the level of tachyzoite proliferation. The peritoneal fluid was collected twice; the first time, it was centrifuged at 500 rpm for 10 min, then the supernatant was centrifuged at 2500 rpm for 20 min, discarded, and the worm precipitate was collected at the bottom, and mixed with an appropriate amount of physiological saline. A total of 10 μL of T. gondii suspension was mixed with 10 μL of 4% Trypan blue staining solution in a 1.5 mL centrifuge tube.
The histology research includes apparent pathological change score, H&E staining and histopathological scores of tissue, as shown in Table 4 and Table 5. In detail, the obtained small intestine tissues were fixed in formalin solution and embedded in paraffin wax after gradual dehydration with different concentrations of ethanol. The paraffin fast was sectioned to a thickness of 5 μm, rehydrated and stained with hematoxylin and eosin, respectively, and finally permeabilized with xylene and sealed with neutral gum. A light microscope was used to observe and collect pictures, and the degree of damage to the small intestinal tissues was assessed according to Chiu’s six-grade scale.

[3] = system: small intestine of mice with T. gondii infection; assay: Small intestine and serum biochemical parameters (GSH, MDA, NO, DAO) of T. gondii-infected mice; assay type: in vivo; details: 100 mg/kg oral once a day for 6 days
Excerpt: as §2
The GSH was measured according to the method in [58]. The intestine homogenate was mixed with half volume trichloroacetic acid (20%, w/v) and centrifuged at 4000 rpm for 10 min. Then, phosphate buffer (phosphate 0.3 mol/L, pH 7.5) and 5,5-dithio-bis-(2-nitrobenzoic acid) (0.04%, w/v) were added to the separated supernatant and mixed thoroughly. After 5 min at room temperature, the absorbance was measured at 412 nm.
MDA was measured by the standard method with minor modifications. The small intestine homogenate supernatant was mixed with thiobarbituric acid (0.5%, w/v) and heated in boiling water bath for 1 h, then cooled quickly and centrifuged at 6000 rpm for 10 min; the absorbance of pink colored supernatant was measured at 532 nm. Tetraethoxypropane replaced the intestine homogenate in the standard sample.
(§3) The Greiss method was used to determine the NO content in small intestine tissues and cells. The above small intestine tissue homogenate or IEC-6 cell supernatant was centrifuged at 4 °C and 1500 rpm for 15 min, and the absorbance was measured at 540 nm by adding equal amounts of Griess A and B reagents to the supernatant. The standard used in the NO standard curve was sodium nitrite, and the NO content in the samples was calculated by substituting the absorbance values of the samples into the regression equation of the standard curve.
The DAO evaluation experimental method of Xin Y et al. was adopted, in which mouse heart blood was taken from a 1.5 mL centrifuge tube and centrifuged at 4 °C and 3000× g for 10 min, and the upper layer of serum was taken for measurement. Another 1.5 mL tube was taken and 600 μL of phosphate buffer, 20 μL of horseradish peroxidase, 20 μL of dianisidine dihydrochloride hydrochloride, and 20 μL of 1,5-pentanediamine hydrochloride were added. After that, 100 μL of serum samples to be tested was added, mixed well and heated at 37 °C for 18 h. The absorbance was measured at 436 nm. […]. A total of 100 μL of distilled water was used in the blank tube instead of serum, and the standard used in the standard curve was diamine oxidase. The absorbance value of the experimental samples was substituted into the regression equation of the standard curve to calculate the content of DAO in the serum samples.

[4] = system: T. gondii; assay: MTT anti-T. gondii activity in T. gondii-infected IEC-6 cells; assay type: cell-based, Toxoplasma gondii; details: for Selective Index (SI): IC50 in IEC-6 cells/IC50 in T. gondii-infected IEC-6 cells; for IC50: Toxoplasma gondii, read-out: IC50 in T. gondii
Experimental: as §1

[5] = system: IEC-6 cells with T. gondii infection; assay: NO level of T. gondii-infected IEC-6 cells (Griess); assay type: cell-based; details: Griess method, cell supernatant; compared with Toxo group
Experimental: as §3

[6] = system: T. gondii; assay: Giemsa staining: cell infection rate and intracellular tachyzoites in IEC-6 cells; assay type: cell-based, Toxoplasma gondii; details: IEC-6 cells infected 3 h, drug 12 h at the IC50 value of the cells; for cell infection rate: Toxo group 49.2%; for number of intracellular tachyzoites: Toxo group 254
Experimental: as §1

[7] = system: T. gondii; assay: In vivo anti-T. gondii activity, peritoneal tachyzoite count by Trypan Blue; design: species or system Toxoplasma gondii; details: 100 mg/kg oral once a day for 6 days; for Number of Tachyzoites: peritoneal cavity of KM female mice, i.p. 2 × 10^3 tachyzoites, Toxo 12.28 ± 0.39; for Inhibition Rate: mice peritoneal T. gondii, (untreated group − treated group)/untreated group × 100%
Excerpt: as §2

[8] = Small intestine function of T. gondii-infected mice (weight, food utilization, carmine excretion); assay type: in vivo; details: 100 mg/kg oral once a day for 6 days
Experimental: On the last day, heart blood samples were collected after anesthesia to separate the serum, and after mice were sacrificed by cervical dislocation, mice were dissected to obtain organs and tissues. The tachyzoites were harvested from mice peritoneal cavities to determine the level of tachyzoite proliferation. The peritoneal fluid was collected twice; the first time, it was centrifuged at 500 rpm for 10 min, then the supernatant was centrifuged at 2500 rpm for 20 min, discarded, and the worm precipitate was collected at the bottom, and mixed with an appropriate amount of physiological saline. […] Mouse food intake and body weight were recorded daily for six days during the experiment and were used to record growth performance data. At the end of the experiment, body weight gain, food intake and food utilization of mice were calculated as Equation (1). […] A solution containing 3% carmine dye and 0.5% carboxymethyl cellulose was prepared. On the fifth day of T. gondii infection, each mouse was transferred to a separate cage, with the bottom of the cage completely covered with white paper to facilitate the detection of cochineal in the feces after red feces were eliminated. […] During the experimental period, the mice were free to move around, and eat and drink freely without any external interference, as described.

[9] = MTT, concentration required to reduce IEC-6 cell growth by 50%, 24 h treatment
[10] = MTT, concentration required to reduce T. gondii-infected IEC-6 cell growth by 50%, 24 h treatment

N#CCc1cn(C=O)c2ccccc12 [A1, 1-Formyl-1H-indole-3-acetonitrile]
IC50 [1, 9]: 417 µM
intestinal barrier damage induced by T. gondii infection (histology, H&E) [2]: demonstrate potential in ameliorating intestinal barrier damage
DAO level in serum [3]: mitigate the elevated levels
MDA level in small intestine tissue [3]: surpassed that of the positive control drug, Spy
NO level in small intestine tissue [3]: mitigate the elevated levels
Selective Index (SI) [4]: 1.2
IC50 [4, 10]: 342 µM
NO level of IEC-6 cells with T. gondii infection [5]: significantly decreased the release of intracellular nitric oxide
cell infection rate [6]: 26.0%
Number of Tachyzoites [7]: 8.17 ± 0.84 ×10^6

NCCc1cn(C=O)c2ccccc12 [A2, 1-Formyl-1H-indole-3-ethanamine]
IC50 ([1]; IEC-6, 24 h): > 1000 µM
IC50 ([4]; IEC-6, 24 h): > 1000 µM

O=Cc1c[nH]c2ccccc12 [A3, Indole-3-carboxaldehyde]
IC50 [1, 9]: 869.2 ± 4 µM
apparent pathological damage score (intestine apparent pathology scoring) [2]: significantly lower apparent pathological damage score compared to Spy
intestinal barrier damage induced by T. gondii infection (histology, H&E) [2]: most effective, surpassing the control drug Spy in efficacy
DAO level in serum [3]: more significant
GSH level in small intestine tissue [3]: significantly higher than that observed with the positive control drug, Spy
MDA level in small intestine tissue [3]: effective inhibition of the MDA increase
NO level in small intestine tissue [3]: less pronounced compared to the other derivatives
Selective Index (SI) [4]: 1.3
IC50 [4, 10]: 675 ± 8.3 µM
NO level of IEC-6 cells with T. gondii infection [5]: lowest NO release levels; also recorded: significantly decreased the release of intracellular nitric oxide
cell infection rate [6]: 15.0%
number of intracellular tachyzoites [6]: more effective than Spy
Inhibition Rate [7]: 33.3%
Number of Tachyzoites [7]: 8.22 ± 1.49 ×10^6

O=Cc1c[nH]c2ncc(Br)cc12 [A4, 5-bromo-1H-pyrrolo[2,3-b] pyridine-3-carbaldehyde]
IC50 [1, 9]: 960.3 ± 2.5 µM
Selective Index (SI) [4]: 1.0
IC50 [4, 10]: 995.7 ± 4.9 µM

O=Cc1c(Cl)[nH]c2ccccc12 [A5, 2-Chloro-1H-indole-3-carbaldehyde]
IC50 [1, 9]: 602 ± 9.9 µM
intestinal barrier damage induced by T. gondii infection (histology, H&E) [2]: demonstrate potential in ameliorating intestinal barrier damage
DAO level in serum [3]: mitigate the elevated levels
MDA level in small intestine tissue [3]: effective inhibition of the MDA increase
NO level in small intestine tissue [3]: mitigate the elevated levels
Selective Index (SI) [4]: 1.1
IC50 [4, 10]: 564 ± 6.9 µM
NO level of IEC-6 cells with T. gondii infection [5]: significantly decreased the release of intracellular nitric oxide
cell infection rate [6]: 20.3%
number of intracellular tachyzoites [6]: more effective than Spy
Inhibition Rate [7]: 22.2%
Number of Tachyzoites [7]: 9.56 ± 0.92 ×10^6

COC(=O)c1cn(C=O)c2ccccc12 [A6, 1-formyl-1H-indole-3-carboxylic acid methyl ester]
IC50 ([1]; IEC-6, 24 h): 633 ± 9.8 µM
Selective Index (SI) [4]: 0.9
IC50 ([4]; IEC-6, 24 h): 742 ± 10.5 µM

Clc1cc2ccccc2[nH]1 [A7, 2-Chloro-1H-indole]
IC50 [1, 9]: 283.7 ± 2.6 µM
Selective Index (SI) [4]: 1.0
IC50 [4, 10]: 287 ± 6.1 µM

Cn1cc(C=O)c2ccccc21 [A8, 1-Methyl-indole-3-carbaldehyde]
IC50 [1, 9]: 650 ± 7.9 µM
intestinal barrier damage induced by T. gondii infection (histology, H&E) [2]: demonstrate potential in ameliorating intestinal barrier damage
DAO level in serum [3]: mitigate the elevated levels
MDA level in small intestine tissue ([3]; 100 mg/kg): effective inhibition of the MDA increase; also recorded: slightly outperformed A9
NO level in small intestine tissue ([3]; 100 mg/kg): mitigate the elevated levels; also recorded: slightly outperformed A9
Selective Index (SI) [4]: 1.1
IC50 [4, 10]: 571 ± 7.4 µM
NO level of IEC-6 cells with T. gondii infection [5]: significantly decreased the release of intracellular nitric oxide
cell infection rate [6]: 20.5%
number of intracellular tachyzoites [6]: more effective than Spy
Number of Tachyzoites [7]: 8.92 ± 0.51 ×10^6

Cn1c(-c2ccccc2)c(C=O)c2ccccc21 [A9, 1-Methyl-2-phenylindole-3-carbaldehyde]
IC50 [1, 9]: 408.4 ± 3.5 µM
intestinal barrier damage induced by T. gondii infection (histology, H&E) [2]: demonstrate potential in ameliorating intestinal barrier damage
MDA level in small intestine tissue [3]: effective inhibition of the MDA increase
NO level in small intestine tissue [3]: mitigate the elevated levels
Selective Index (SI) [4]: 1.1
IC50 [4, 10]: 366 ± 8.8 µM
NO level of IEC-6 cells with T. gondii infection [5]: lowest NO release levels; also recorded: significantly decreased the release of intracellular nitric oxide
cell infection rate [6]: 18.0%
number of intracellular tachyzoites [6]: more effective than Spy
food utilization efficiency of mice with T. gondii infection [8]: enhanced food utilization efficiency
weight increment of mice with T. gondii infection [8]: did not affect this parameter, except for derivative A9
Inhibition Rate [7]: 28.1%
Number of Tachyzoites [7]: 8.83 ± 0.39 ×10^6

c1ccc2[nH]ccc2c1 [Indole, indole]
IC50 ([1]; IEC-6, 24 h): 939.6 ± 5.4 µM
Selective Index (SI) [4]: 1.0
IC50 ([4]; IEC-6, 24 h): 921.2 ± 5 µM
cell infection rate [6]: 32.2%
Number of Tachyzoites [7]: 10.33 ± 2.84 ×10^6
